Source: patent US5234922A, “Use of sulfonylureas and other potassium channel regulators to treat secretory diarrhea” (University of Iowa Research Foundation, priority 1992, dated 1993)
Structures can show the parent of a compound that is named as a salt. Where two headings read alike, the source gives them in different places.

Target: T1, wild-type human CFTR (Homo sapiens, UniProt P13569)
T1 construct: expressed in transfected cells; host or cells: NIH 3T3 fibroblasts (stably infected with a retrovirus)
T1 sequence (P13569 whole entry): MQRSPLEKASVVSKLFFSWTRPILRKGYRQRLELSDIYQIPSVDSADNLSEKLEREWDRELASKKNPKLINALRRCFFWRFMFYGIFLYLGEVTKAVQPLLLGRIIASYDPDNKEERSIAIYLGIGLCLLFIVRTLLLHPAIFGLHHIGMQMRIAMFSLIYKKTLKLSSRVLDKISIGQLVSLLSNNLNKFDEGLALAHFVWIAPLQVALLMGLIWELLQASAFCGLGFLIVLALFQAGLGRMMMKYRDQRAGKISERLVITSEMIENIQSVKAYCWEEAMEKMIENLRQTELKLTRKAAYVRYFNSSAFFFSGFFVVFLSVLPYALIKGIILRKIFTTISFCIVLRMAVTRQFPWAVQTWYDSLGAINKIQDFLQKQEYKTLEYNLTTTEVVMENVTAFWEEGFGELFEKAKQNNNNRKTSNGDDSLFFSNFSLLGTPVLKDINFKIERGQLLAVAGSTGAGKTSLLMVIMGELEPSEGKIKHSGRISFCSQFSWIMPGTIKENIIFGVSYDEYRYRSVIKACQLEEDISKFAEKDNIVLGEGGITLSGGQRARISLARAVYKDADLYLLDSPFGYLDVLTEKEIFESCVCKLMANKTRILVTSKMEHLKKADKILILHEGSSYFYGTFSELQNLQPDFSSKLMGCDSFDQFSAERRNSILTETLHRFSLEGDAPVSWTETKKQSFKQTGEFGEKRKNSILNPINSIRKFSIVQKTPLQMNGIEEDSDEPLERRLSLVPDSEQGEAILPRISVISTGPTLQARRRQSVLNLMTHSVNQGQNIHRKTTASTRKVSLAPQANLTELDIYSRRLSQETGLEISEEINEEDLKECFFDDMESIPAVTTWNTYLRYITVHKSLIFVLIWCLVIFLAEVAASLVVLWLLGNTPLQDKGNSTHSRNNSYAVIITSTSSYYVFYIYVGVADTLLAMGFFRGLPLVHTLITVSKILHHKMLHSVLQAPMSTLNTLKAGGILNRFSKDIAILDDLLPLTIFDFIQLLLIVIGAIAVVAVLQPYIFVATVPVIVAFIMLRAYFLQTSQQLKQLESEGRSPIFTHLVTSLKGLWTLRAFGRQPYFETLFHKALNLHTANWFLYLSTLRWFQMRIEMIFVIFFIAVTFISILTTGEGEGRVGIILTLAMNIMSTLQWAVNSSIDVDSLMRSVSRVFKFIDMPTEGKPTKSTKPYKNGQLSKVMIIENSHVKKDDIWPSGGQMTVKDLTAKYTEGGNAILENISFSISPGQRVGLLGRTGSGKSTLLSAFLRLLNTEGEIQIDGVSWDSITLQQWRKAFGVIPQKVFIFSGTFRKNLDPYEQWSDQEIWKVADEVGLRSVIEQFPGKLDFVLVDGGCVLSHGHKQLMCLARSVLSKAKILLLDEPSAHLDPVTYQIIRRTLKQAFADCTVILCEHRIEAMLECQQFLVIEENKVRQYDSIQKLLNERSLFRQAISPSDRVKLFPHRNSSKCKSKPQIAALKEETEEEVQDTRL
Assay: Whole-cell patch-clamp recording of cAMP-activated CFTR Cl- currents in NIH 3T3 fibroblasts expressing recombinant CFTR
Assay type: cell-based
Details: for effect on baseline currents: before cAMP stimulation, n=3; for effect on Cl- current previously activated by cAMP agonists: added to the bathing solution after activation; for relative potency of inhibition of CFTR Cl- currents: rank order among K+ channel openers; for inhibition at 1000 µM: 1 mM

[1] = NIH3T3, 250 μM, 3 min after adding, currents activated by cAMP agonists
[2] = NIH3T3, 3 min after adding, currents activated by cAMP agonists

Compound | inhibition at 250 µM [1] [%] | effect on Cl- current previously activated by cAMP agonists | relative potency of inhibition of CFTR Cl- currents | inhibition at 1000 µM [2] [%] | other results
CC1(C)Oc2ccc(C#N)cc2[C@@H](N2CCCC2=O)[C@@H]1O [lemakalim] | > 70 | inhibited | more potent than diazoxide |  | effect on baseline currents (250 μM): no effect
CC1=NS(=O)(=O)c2cc(Cl)ccc2N1 [diazoxide] | > 70 | inhibited |  | > 70 | effect on baseline currents (100-1,000 μM): no effect
COc1ccc(Cl)cc1C(=O)NCCc1ccc(S(=O)(=O)NC(=O)NC2CCCCC2)cc1 [glibenclamide] |  |  |  |  | inhibition at 100 µM (NIH3T3, read-out: inhibition of CFTR Cl- currents): > 90%; reversibility of inhibition of CFTR Cl- currents on washing (prolonged washing): irreversible
CCCCNC(=O)NS(=O)(=O)c1ccc(C)cc1 [tolbutamide] |  |  |  | > 90 | voltage dependence of inhibition of CFTR Cl- currents (500 μM): little voltage dependence; effect on CFTR Cl- currents (500 μM, currents activated by cAMP agonists): inhibited; reversibility of inhibition of CFTR Cl- currents on washing (washes lasting >10 min): partially recovered
Nc1cc(N2CCCCC2)nc(N)[n+]1OS(=O)(=O)[O-] [minoxidil sulfate] |  | inhibited | more potent than lemakalim |  | effect on baseline currents (10-500 μM): no effect; inhibition at 100 µM (NIH3T3, 100 μM, 3 min after adding, currents activated by cAMP agonists, read-out: inhibition of CFTR Cl- currents): > 70%
